Measurements from ChEMBL document CHEMBL1909046, “DrugMatrix in vitro pharmacology data”.

Experiments:
[1] = DRUGMATRIX: Glutamate, NMDA, Phencyclidine radioligand binding (ligand: [3H] TCP); type: cell membranes, Rattus norvegicus, Wistar, Cerebral cortex, Membrane; settings: Not Active = under 50% inhibition at 10 µM
[2] = DRUGMATRIX: Sigma2 radioligand binding (ligand: [3H] Ifenprodil); type: cell membranes, Rattus norvegicus, Wistar, Brain, Membrane; settings: Not Active = under 50% inhibition at 10 µM
[3] = target: T1, Polyunsaturated fatty acid lipoxygenase ALOX15 (Oryctolagus cuniculus, UniProt P12530); assay: biochemical; type: tissue-based, Reticulocytes;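 further: inhibition of 15-lipoxygenase enzyme activity measured with linoleic acid as the substrate; in other assays of this panel Not Active means under 50% inhibition at 10 µM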
T1 sequence (P12530 whole entry): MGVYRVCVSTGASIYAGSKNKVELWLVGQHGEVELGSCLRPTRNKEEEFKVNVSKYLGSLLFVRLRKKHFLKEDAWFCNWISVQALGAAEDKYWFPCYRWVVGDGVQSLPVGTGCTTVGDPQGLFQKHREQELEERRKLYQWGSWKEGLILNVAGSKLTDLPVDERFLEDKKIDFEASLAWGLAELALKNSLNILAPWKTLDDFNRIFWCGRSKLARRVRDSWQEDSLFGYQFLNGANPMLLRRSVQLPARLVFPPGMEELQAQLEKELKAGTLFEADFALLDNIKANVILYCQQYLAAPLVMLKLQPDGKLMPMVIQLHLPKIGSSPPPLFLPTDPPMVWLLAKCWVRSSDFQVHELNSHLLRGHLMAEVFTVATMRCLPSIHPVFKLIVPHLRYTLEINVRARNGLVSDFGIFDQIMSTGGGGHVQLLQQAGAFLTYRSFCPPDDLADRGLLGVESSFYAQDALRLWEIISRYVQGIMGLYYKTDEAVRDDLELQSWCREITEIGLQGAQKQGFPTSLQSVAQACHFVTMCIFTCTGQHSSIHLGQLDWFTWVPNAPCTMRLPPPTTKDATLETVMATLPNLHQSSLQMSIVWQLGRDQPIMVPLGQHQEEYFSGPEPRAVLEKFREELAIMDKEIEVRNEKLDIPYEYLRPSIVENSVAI

[4] = target: Carbonic anhydrase 2 (Homo sapiens, UniProt P00918); assay: DRUGMATRIX: Carbonic Anhydrase II enzyme inhibition (substrate: 4-Nitrophenyl acetate (4-NPA)); type: tissue-based, Erythrocyte; settings: erythrocyte; Not Active = under 50% inhibition at 10 µM
[5] = DRUGMATRIX: Platelet-Derived Growth Factor (PDGF) radioligand binding (ligand: [125I] PDGF); type: cell-based; settings: nih3t3; Not Active = under 50% inhibition at 10 µM
[6] = DRUGMATRIX: Imidazoline I2, Central radioligand binding (ligand: [3H] Idazoxan); type: cell membranes, Rattus norvegicus, Wistar, Cerebral cortex, Membrane; settings: Not Active = under 50% inhibition at 10 µM

SMILES	IC50 [1]	Ki [1]	IC50 [2]	Ki [2]	IC50 ([3]; reticulocytes)	IC50 [4]	IC50 [5]	Ki [5]	IC50 [6]	Ki [6]	IC50 ([6]; read-out: IC50)	Ki ([6]; read-out: Ki)	IC50 ([3]; read-out: IC50)	IC50 ([2]; read-out: IC50)	Ki ([2]; read-out: Ki)
CC(N)C12CC3CC(CC(C3)C1)C2 (centres undefined) [RIMANTADINE]	Not Active	Not Active	Not Active	Not Active	Not Active	Not Active	Not Active	Not Active	Not Active	Not Active	–	–	–	–	–
CS(=O)(=O)c1ccc(C2=C(c3ccccc3)C(=O)OC2)cc1 [ROFECOXIB]	Not Active	Not Active	Not Active	Not Active	Not Active	Not Active	Not Active	Not Active	Not Active	Not Active	–	–	–	–	–
CCOc1cc(N)c(Cl)cc1C(=O)NCC1CN(Cc2ccc(F)cc2)CCO1 (centres undefined) [MOSAPRIDE]	Not Active	Not Active	Not Active	Not Active	Not Active	Not Active	Not Active	Not Active	Not Active	Not Active	–	–	–	–	–
Cc1ccnc(NS(=O)(=O)c2ccc(N)cc2)n1 [SULFAMERAZINE]	Not Active	Not Active	Not Active	Not Active	Not Active	–	Not Active	Not Active	Not Active	Not Active	–	–	–	–	–
OC[C@@H](O)[C@@H](O)[C@H](O)[C@H](O)CO [MANNITOL]	Not Active	Not Active	Not Active	Not Active	Not Active	Not Active	Not Active	Not Active	Not Active	Not Active	–	–	–	–	–
Oc1ccc(/C=C/c2cc(O)cc(O)c2)cc1 [RESVERATROL]	Not Active	Not Active	Not Active	Not Active	Not Active	Not Active	Not Active	Not Active	Not Active	Not Active	–	–	–	–	–
CC1=C(/C=C/C(C)=C/C=C/C(C)=C/C(=O)O)C(C)(C)CCC1 [TRETINOIN]	Not Active	Not Active	Not Active	Not Active	Not Active	Not Active	Not Active	Not Active	Not Active	Not Active	–	–	–	–	–
C=CCc1ccc2c(c1)OCO2 [SAFROLE]	Not Active	Not Active	Not Active	Not Active	Not Active	Not Active	Not Active	Not Active	Not Active	Not Active	–	–	–	–	–
CCN(CC)N=O [N-NITROSODIETHYLAMINE]	Not Active	Not Active	Not Active	Not Active	Not Active	Not Active	Not Active	Not Active	Not Active	Not Active	–	–	–	–	–
CCN1CCCC1CNC(=O)c1cc(S(N)(=O)=O)ccc1OC (centres undefined) [SULPIRIDE]	Not Active	Not Active	Not Active	Not Active	Not Active	–	Not Active	Not Active	Not Active	Not Active	–	–	–	–	–
O=C1CC[C@@]2(O)[C@H]3Cc4ccc(O)c5c4[C@@]2(CCN3CC2CC2)[C@H]1O5 [NALTREXONE]	Not Active	Not Active	Not Active	Not Active	Not Active	Not Active	Not Active	Not Active	Not Active	Not Active	–	–	–	–	–
C[N+]1(C)[C@@H]2C[C@@H](OC(=O)[C@H](CO)c3ccccc3)C[C@H]1[C@@H]1O[C@@H]12.[Br-] [METHSCOPOLAMINE BROMIDE]	Not Active	Not Active	Not Active	Not Active	Not Active	Not Active	Not Active	Not Active	Not Active	Not Active	–	–	–	–	–
CCN(CC)CCNC(=O)c1cc(Cl)c(N)cc1OC [METOCLOPRAMIDE]	Not Active	Not Active	Not Active	Not Active	Not Active	Not Active	Not Active	Not Active	–	–	708 nM	472 nM	–	–	–
O=C(OC[C@H]1O[C@@H](OC(=O)c2cc(O)c(O)c(OC(=O)c3cc(O)c(O)c(O)c3)c2)[C@H](OC(=O)c2cc(O)c(O)c(OC(=O)c3cc(O)c(O)c(O)c3)c2)[C@@H](OC(=O)c2cc(O)c(O)c(OC(=O)c3cc(O)c(O)c(O)c3)c2)[C@@H]1OC(=O)c1cc(O)c(O)c(OC(=O)c2cc(O)c(O)c(O)c2)c1)c1cc(O)c(O)c(OC(=O)c2cc(O)c(O)c(O)c2)c1 [TANNIC ACID]	Not Active	Not Active	Not Active	Not Active	–	Not Active	Not Active	Not Active	Not Active	Not Active	–	–	268 nM	–	–
CN1C(=O)OC(C)(C)C1=O [TRIMETHADIONE]	Not Active	Not Active	Not Active	Not Active	Not Active	Not Active	Not Active	Not Active	Not Active	Not Active	–	–	–	–	–
Cc1cn([C@H]2C=C[C@@H](CO)O2)c(=O)[nH]c1=O [STAVUDINE]	Not Active	Not Active	Not Active	Not Active	Not Active	Not Active	Not Active	Not Active	Not Active	Not Active	–	–	–	–	–
CN1C[C@H](CNC(=O)OCc2ccccc2)C[C@@H]2c3cccc4c3c(cn4C)C[C@H]21 [METERGOLINE]	Not Active	Not Active	Not Active	Not Active	Not Active	Not Active	Not Active	Not Active	–	–	1920 nM	1280 nM	–	–	–
CCN(CC)C(=S)SSC(=S)N(CC)CC	Not Active	Not Active	–	–	–	Not Active	Not Active	Not Active	Not Active	Not Active	–	–	16100 nM	75600 nM	46500 nM
Cc1cc2c(s1)Nc1ccccc1N=C2N1CCN(C)CC1 [OLANZAPINE]	–	–	–	–	–	Not Active	–	–	–	–	–	–	2770 nM	–	–
CC(C)(C)NC[C@H](O)COc1cccc2c1CCCC2=O [LEVOBUNOLOL]	Not Active	Not Active	Not Active	Not Active	Not Active	Not Active	Not Active	Not Active	Not Active	Not Active	–	–	–	–	–
Nc1nc(N)c2nc(-c3ccccc3)c(N)nc2n1	Not Active	Not Active	Not Active	Not Active	Not Active	Not Active	Not Active	Not Active	Not Active	Not Active	–	–	–	–	–
Cc1ccc(S(=O)(=O)NC(=O)NN2CCCCCC2)cc1 [TOLAZAMIDE]	Not Active	Not Active	Not Active	Not Active	–	Not Active	Not Active	Not Active	Not Active	Not Active	–	–	5110 nM	–	–
CN(C)CCC=C1c2ccccc2COc2ccccc21 [DOXEPIN]	–	–	–	–	Not Active	Not Active	–	–	–	–	–	–	–	–	–
CNCCCC12CCC(c3ccccc31)c1ccccc12 [MAPROTILINE]	–	–	–	–	Not Active	Not Active	–	–	–	–	–	–	–	–	–
